Measured values taken from paper PMC11747885, “Potent inhibitors of the human RNA ligase Rlig1 highlights its role in RNA integrity maintenance under oxidative cellular stress” (Chemical Science, 2025).
Several values for one entry are separate records, joined by “and”; a condition that tells them apart may be missing. Equal values may be shown once. Read-outs that look alike come from different tables or passages of the source.

Assays:
[1] = system: c-Myc-Max; parameters: method as in MedChemExpress; conditions: c-Myc-Max dimerization; ref MedChemExpress; cited from earlier work
[2] = target: T1, Rlig1-AMP (Homo sapiens, UniProt Q8N999); test: FRET-based high-throughput screening of inhibitors for Rlig1-AMP; type: biochemical; conditions: HTS hits; for Raw data [w Enyzm]: with enzyme; for Raw data [w/o Enzym]: without enzyme
T1 construct: made in house; host or cells: E. coli BL21 (DE3), pET15b-Rlig1
T1 sequence (Q8N999 whole entry): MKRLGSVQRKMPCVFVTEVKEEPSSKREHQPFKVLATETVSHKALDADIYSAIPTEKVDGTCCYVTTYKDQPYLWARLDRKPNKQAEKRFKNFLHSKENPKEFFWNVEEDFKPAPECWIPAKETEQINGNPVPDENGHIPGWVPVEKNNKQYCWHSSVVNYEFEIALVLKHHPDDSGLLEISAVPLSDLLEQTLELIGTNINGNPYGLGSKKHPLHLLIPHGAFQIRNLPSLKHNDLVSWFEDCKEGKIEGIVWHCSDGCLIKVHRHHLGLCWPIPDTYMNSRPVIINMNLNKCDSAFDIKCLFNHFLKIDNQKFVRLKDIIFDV

[3] = target: B-Raf kinase; parameters: method as in MedChemExpress; conditions: ref MedChemExpress; cited from earlier work
[4] = system: GLP; parameters: method as in MedChemExpress; conditions: ref MedChemExpress; cited from earlier work
[5] = system: G9a; parameters: method as in MedChemExpress; conditions: ref MedChemExpress; cited from earlier work
[6] = system: MIA PaCa-2 cells; parameters: method as in MedChemExpress; conditions: ref MedChemExpress, read-out: IC50, Pol I-mediated rRNA synthesis; cited from earlier work
[7] = system: HCT-116; parameters: method as in MedChemExpress; conditions: ref MedChemExpress, read-out: IC50, Pol I-mediated rRNA synthesis; cited from earlier work
[8] = system: Pol II; parameters: method as in MedChemExpress; conditions: ref MedChemExpress; cited from earlier work
[9] = system: A375; parameters: method as in MedChemExpress; conditions: ref MedChemExpress, read-out: IC50, Pol I-mediated rRNA synthesis; cited from earlier work
[10] = system: Pim-2; parameters: method as in MedChemExpress; conditions: ref MedChemExpress; cited from earlier work
[11] = ref MedChemExpress, cited from earlier work
[12] = system: Pim-1; parameters: method as in MedChemExpress; conditions: ref MedChemExpress; cited from earlier work
[13] = system: PU.1; parameters: method as in MedChemExpress; conditions: in vitro; ref MedChemExpress; read-out: IC50, PU.1 binding; cited from earlier work
[14] = target: λB; parameters: method as in MedChemExpress; conditions: in vitro; ref MedChemExpress; read-out: KD, DB1976-λB affinity; cited from earlier work
[15] = system: transcription factor PU.1; parameters: method as in MedChemExpress; conditions: ref MedChemExpress; cited from earlier work
[16] = system: FLT3 wild type; parameters: method as in MedChemExpress; conditions: ref MedChemExpress; cited from earlier work
[17] = system: FLT3-D835Y; parameters: method as in MedChemExpress; conditions: ref MedChemExpress; cited from earlier work
[18] = system: ALK2; parameters: method as in MedChemExpress; conditions: ref MedChemExpress; cited from earlier work
[19] = target: tau protein; parameters: method as in MedChemExpress; conditions: tau protein aggregation; ref MedChemExpress; cited from earlier work
[20] = system: L-type currents; parameters: method as in MedChemExpress; conditions: ref MedChemExpress; cited from earlier work
[21] = system: T-type Ca2+ channels; parameters: method as in MedChemExpress; conditions: T-type currents; ref MedChemExpress; cited from earlier work
[22] = system: Shp1 (SH-PTP1); parameters: method as in MedChemExpress; conditions: ref MedChemExpress; cited from earlier work
[23] = target: BCL-2; parameters: method as in MedChemExpress; conditions: ref MedChemExpress; cited from earlier work
[24] = system: Tyk2; parameters: method as in MedChemExpress; conditions: ref MedChemExpress; cited from earlier work
[25] = system: JAK1; parameters: method as in MedChemExpress; conditions: ref MedChemExpress; cited from earlier work
[26] = system: JAK3; parameters: method as in MedChemExpress; conditions: ref MedChemExpress; cited from earlier work
[27] = system: JAK2; parameters: method as in MedChemExpress; conditions: ref MedChemExpress; cited from earlier work
[28] = target: NMDA receptor; parameters: method as in MedChemExpress; conditions: ref MedChemExpress; cited from earlier work
[29] = system: Fgr; parameters: method as in MedChemExpress; conditions: ref MedChemExpress; cited from earlier work
[30] = system: FGFR1; parameters: method as in MedChemExpress; conditions: ref MedChemExpress; cited from earlier work
[31] = system: PDGFRβ; parameters: method as in MedChemExpress; conditions: ref MedChemExpress; cited from earlier work
[32] = system: VEGFR1; parameters: method as in MedChemExpress; conditions: ref MedChemExpress; cited from earlier work
[33] = system: Src; parameters: method as in MedChemExpress; conditions: ref MedChemExpress; cited from earlier work
[34] = system: Yes; parameters: method as in MedChemExpress; conditions: ref MedChemExpress; cited from earlier work
[35] = system: FGFR2; parameters: method as in MedChemExpress; conditions: ref MedChemExpress; cited from earlier work
[36] = system: Hck; parameters: method as in MedChemExpress; conditions: ref MedChemExpress; cited from earlier work
[37] = system: Lyn; parameters: method as in MedChemExpress; conditions: ref MedChemExpress; cited from earlier work
[38] = system: VEGFR2; parameters: method as in MedChemExpress; conditions: ref MedChemExpress; cited from earlier work
[39] = system: Fyn; parameters: method as in MedChemExpress; conditions: ref MedChemExpress; cited from earlier work
[40] = system: Lck; parameters: method as in MedChemExpress; conditions: ref MedChemExpress; cited from earlier work
[41] = DMSO; ref MedChemExpress; cited from earlier work
[42] = system: CDK7; parameters: method as in MedChemExpress; conditions: ref MedChemExpress; cited from earlier work
[43] = system: BRD4 BD1; parameters: method as in MedChemExpress; conditions: ref MedChemExpress; cited from earlier work
[44] = system: BRD4 BD2; parameters: method as in MedChemExpress; conditions: ref MedChemExpress; cited from earlier work
[45] = difference of raw data w/o and w enzyme
[46] = normalised value of 1-D Distance
[47] = difference of raw data without and with enzyme

SMILES	1-D Distance [2, 45]	1-D Distance.npi ([2]; normalized value (npi))	Raw data [w Enyzm] [2]	Raw data [w/o Enzym] [2]	also measured
O=[N+]([O-])c1ccc(Nc2ccccc2-c2ccccc2)c2nonc12 [10074-G5]	758	91.4368	1415	2173	IC50 [1]: 146000 nM
CN(C)Cc1ccc(-c2cnn3c(-c4cccc(NC(=O)c5cccc(C(F)(F)F)c5)c4)ccnc23)cc1 [B-Raf IN 1]	563	95.4397	7195	7758	IC50 [3]: […]
COc1cc2c(NC3CCN(C)CC3)cc(-c3ccc(C)o3)nc2cc1OCCCN1CCCC1 [CM-272]	449	99.0872	6004	6453	IC50 [4]: 2 nM; IC50 [5]: […]
Cc1cnc(CNC(=O)c2c(=O)c3ccc(N4CCCN(C)CC4)nc3n3c2sc2ccccc23)cn1.Cl.Cl [CX-5461 dihydrochloride]	1694		7215	8909	IC50 [6]: 54 nM; IC50 [7]: 142 nM; IC50 [8]: ≥ 25000 nM; IC50 [9]: 113 nM; 1-D Distance.npi [2, 46]: 72.2021
CN1CCCN(C(=O)c2cccc(-c3ccc(/C=C4/C(=O)Nc5ccc(Cl)cc54)o3)c2)CC1 [CX-6258]	641	93.2533	5174	5815	IC50 [10]: 25 nM; solubility ([11]; DMSO): […]; IC50 [12]: […]
Cl.Cl.N=C(N)c1ccc2nc(-c3ccc(-c4nc5ccc(C(=N)N)cc5[nH]4)[se]3)[nH]c2c1 [DB1976 (dihydrochloride)]	102	105.279	4805	4703	IC50 [13]: 10 nM; solubility ([11]; DMSO): 62.5 mg/mL and 120.13 mM; solubility ([11]; H2O): 18.33 mg/mL and 35.23 mM; Kd [14]: 12 nM
CC(C)N=C(N)c1ccc2nc(-c3ccc(OCc4cccc(COc5ccc(-c6nc7ccc(C(N)=NC(C)C)cc7[nH]6)cc5)c4F)cc3)[nH]c2c1 [DB2313]	699		5551	4852	PU.1 inhibitor with an apoptosis of [15]: DB2313 is a potent transcription factor PU.1 inhibitor with an apoptosis of 14 nM. DB2313 disrupts the interaction of PU.1 with target gene promoters. DB2313 induces apoptosis of acute myeloid leukemia (AML) cells, and has anticancer effects[1].; 1-D Distance.npi [2, 46]: 88.7864
CN1CCC(Nc2nc(Nc3ccc(Oc4ccccc4)cc3)c3c(=O)[nH]cc(Br)c3n2)CC1 [G-749]	603	93.9141	7489	8092	IC50 [16]: 0.4 nM; IC50 [17]: 0.6 nM
c1cc(-c2cnn3cc(-c4ccc(N5CCNCC5)cc4)cnc23)c2cccnc2c1 [LDN-212854]	1181	85.2649	7408	8589	solubility ([11]; DMSO): ≥ 30 mg/mL and ≥ 73.80 mM; IC50 [18]: 1.3 nM
CN(C)c1ccc2c(c1)Sc1cc(N(C)C)ccc1N2.CS(=O)(=O)O.CS(=O)(=O)O [Leucomethylene blue (mesylate)]	1844	72.1191	4383	6227	Ki [19]: 120 nM
COCC(=O)O[C@]1(CCN(C)CCCc2nc3ccccc3[nH]2)CCc2cc(F)ccc2[C@@H]1C(C)C.Cl.Cl [Mibefradil (dihydrochloride)]			9508	11294	IC50 [20]: 18600 nM; IC50 [21]: 2700 nM; 1-D Distance.npi ([2]; MedChemExpress library): 70.2795; 1-D Distance [2, 47]: 1786
O=S(=O)(O)c1ccc2cc(N=Nc3cc(S(=O)(=O)O)c4cccnc4c3O)ccc2c1 [NSC-87877]	982	87.5142	1020		solubility ([11]; DMSO): 25 mg/mL and 54.41 mM; IC50 [22]: 355 nM
COC1=CC(c2cc3ccccc3[nH]2)=N/C1=C\c1[nH]c(C)cc1C.CS(=O)(=O)O [Obatoclax (Mesylate)]	702	94.4219	1010	1712	Ki [23]: 220 nM
NC(=O)c1cnc2[nH]ccc2c1N[C@@H]1[C@@H]2CC3C[C@H]1C[C@@](O)(C3)C2 [Peficitinib]	1954		8816	10770	IC50 [24]: 4.8 nM; IC50 [25]: 3.9 nM; IC50 [26]: […]; IC50 [27]: 5 nM
N[C@@H](Cc1cc(CP(=O)(O)O)cc(-c2ccccc2Cl)c1)C(=O)O [SDZ 220-581]	1679	76.8207	24871	26550	solubility ([11]; DMSO): 8.57 mg/mL and 23.18 mM; pKi [28]: SDZ 220-581 is an orally active, potent, competitive NMDA receptor antagonist with pKi value of 7.7[1].
Cc1cc(-c2cc(O)ccc2Cl)cc2nnc(Nc3ccc(OCCN4CCCC4)cc3)nc12.Cl [TG 100572 (Hydrochloride)]			3376	3338	IC50 [29]: 5 nM; IC50 [30]: 2 nM; IC50 [31]: 13 nM; IC50 [32]: 2 nM; IC50 [33]: 1 nM; IC50 [34]: 0.2 nM; IC50 [35]: 16 nM; IC50 [36]: 6 nM; IC50 [37]: 0.4 nM; IC50 [38]: 7 nM; IC50 [39]: 0.5 nM; IC50 [40]: 0.1 nM; solubility [41]: 25 mg/mL and 48.79 mM; 1-D Distance.npi ([2]; MedChemExpress library): 103.738; 1-D Distance [2, 47]: 38
CN(C)C/C=C/C(=O)Nc1ccc(C(=O)Nc2cccc(Nc3ncc(Cl)c(-c4c[nH]c5ccccc45)n3)c2)cc1.Cl [THZ1 (Hydrochloride)]	289	99.9172	6030	5741	IC50 [42]: 3.2 nM
Cc1cc(N=Nc2ccc3c(c2)CCC(=O)N3)c(N)cc1O [ZL0420]	1352	80.8903	1680	3032	IC50 [43]: 27 nM; IC50 [44]: 32 nM
